Legend:
Ross broiler chicks = assay: Broiler pen trial, early chick growth to 15 days (organic acids and sodium butyrate); type: in vivo
Description: In a broiler trial four different treatments were used in order to evaluate the possible synergistic effect between organic acids and sodium butyrate.
This pen trial included eight replicates of four treatments (Table 1). Each pen had 74 mixed sex commercial Ross broiler chicks. Birds were fed a wheat-based diet including enzymes. All birds were weighed on days 1, 5, 10 and 15.

Ross broilers = assay: Broiler floor pen trial to day 39, formulations with or without calcium butyrate vs Avilamycine; type: in vivo
Description: The objective of this trial was to study and compare two formulations (Table 4) with organic acids and calcium salts of organic acids. One of the formulations included calcium butyrate. Both formulations were compared with a positive and negative control in order to evaluate their possible growth promoting effect evaluated by broiler performance.
Twelve-hundred Ross broilers were divided over 40 floor pens. Each pen contained 15 male and 15 female Ross broilers, one tube feeder and one bell drinker. Feed and water were available ad libitum. All birds received a broiler starter feed from day 0 until day 11 and a broiler finisher meal from day 11 until day 39. […] Pens were assigned to one of four treatments (ten replicate pens for each treatment) using a block randomization. The in feed treatments consisted of: A. no treatment (negative control); B. Avilamycine 10 g/ton (positive control, dosed as Maxus G200 at 50 g/ton); C. Mixture 1, 5000 g/ton and D. mixture 2, 5000 g/ton. In the broiler house the temperature program started on day 0 at 31° C. decreasing 1° C. every two days until 21° C. was reached. The day-night cycle was 23 hours light and 1 hour dark. All birds were weighed at days 0, 11, 25, and 39. Feed usage was measured at days 11, 25 and 39. Live performance data were analyzed as a randomized block design with pen means as the statistical unit. Statistical analysis was performed with Figurepad Instat 2.0 and Microsoft Excel Analysis Toolpak software.

[1] = to 15 days, wheat-based diet, doses as in Table 1
[2] = day 11, Avilamycine 10 g/ton, formulations 5000 g/ton in feed, mean ± SD
[3] = day 25, Avilamycine 10 g/ton, formulations 5000 g/ton in feed, mean ± SD
[4] = day 39, Avilamycine 10 g/ton, formulations 5000 g/ton in feed, mean ± SD

CCCC(=O)[O-].[Na+] [Treatment B, sodium butyrate]
Feed conversion ratio based on weight gain, statistical comparison with control/other treatments (Ross broiler chicks; day 15, P<0.039 for the combination): not statistically different from the control group
FCR based on wt gain (Ross broiler chicks; [1]): 1.279a
Feed consumed (g/bird) (Ross broiler chicks; [1]): 441.3 g/bird
Weight gain (g/bird) (Ross broiler chicks; [1]): 358.4a g/bird

Avilamycine
FCR day 11 (Ross broilers; [2]): 1.314 ± 0.034 a
WG(g) Day 11 (Ross broilers; [2]): 227 ± 7 a g
Weight gain compared with control groups, in words (Ross broilers; day 25): performed better than the negative control group
FCR day 25 (Ross broilers; [3]): 1.775 ± 0.135 a
WG(g) Day 25 (Ross broilers; [3]): 853 ± 44 b g
FCR day 39 (Ross broilers; [4]): 1.839 ± 0.061 ab
WG(g) Day 39 (Ross broilers; [4]): 1981 ± 58 b g
